What was measured:
[1] = biolocalization of the radionuclide in rats (tissue distribution after tail vein injection); assay type: in vivo, male Sprague Dawley rats; conditions: for Bone/Blood / Bone/Muscle: ratio of percent dose per gram
Experimental: Studies to determine the qualitative biodistribution of the various radionuclides were conducted by injecting the compositions into rats and obtaining the gamma ray images of the entire animal at various times up to two hours after injection.
Laboratory rats were injected with the above complex (50-100 μl) via the tail vein. After 2 hours, the animals were sacrificed by cervical dislocation and organs and tissues removed. Samples were counted with a NaI counter to determine the biolocalization of the radionuclide.

[2] = tested on: tumor; conditions: female Irish Wolfhound, possible osteosarcoma; 0.97 mCi/kg
Experimental: An English Setter with a tumor in his pelvis was injected with approximately 19 mCi of a composition containing Sm-153-EDTMP. After 2 hours, the dog was imaged using a scintillation camera.
An Irish setter with undifferentiated sarcoma metastatic to bone was treated with 16 mCi (0.57 mCi/kg) of a composition containing Sm-153-EDTMP. […] After approximately 3 months, when signs of lameness began to reappear, the dog was given a second treatment of 15 mCi (0.49 mCi/kg), of a composition containing Sm-153-EDTMP.
A female Irish Wolfhound with a possible osteosarcoma on the left distal radius was injected with a composition containing ^166 Ho-EDTMP (0.97 mCi/kg).

[3] = localization of radioactivity (composition judged unacceptable); assay type: in vivo; conditions: Sm-153; species not stated
[4] = Yb-175, rats, two hour, average of 5 rats
[5] = Sm-153, rats, 2 hours, average of 5 rats
[6] = Ho-166, Table X, time not stated, average of 3 rats
[7] = Gd-159, two hour, average of five rats
[8] = Sm-153, two hours, comparative, average of 5 rats (MDP, HEDP), 3 rats (PYP, IDP)
[9] = Ho-166, two hours, comparative, average of 2 rats (MDP, HEDP, PYP), 1 rat (IDP, HDP)
[10] = Lu-177 (Ex. 14, 15; 5 rats) or Ho-166 (Ex. 16; 3 rats), two hour

O=P(O)(O)CN(CCO)CCN(CP(=O)(O)O)CP(=O)(O)O.[175Yb+3] [Example 11]
% Dose in Blood [1, 4]: 0.231 % Dose | % Dose in Liver [1, 4]: 0.214 % Dose | % Dose in Skeleton [1, 4]: 56 % Dose | Bone/Blood [1, 4]: 190 | Bone/Muscle [1, 4]: 572

O=P(O)(O)CN(CCN(CCN(CP(=O)(O)O)CP(=O)(O)O)CCN(CP(=O)(O)O)CP(=O)(O)O)CP(=O)(O)O.[153Sm+3] [Example 8]
% Dose in Blood [1, 5]: 0.25 % Dose | % Dose in Liver [1, 5]: 0.18 % Dose | % Dose in Skeleton [1, 5]: 28 % Dose | % Dose in Urine [1, 5]: 65 % Dose | Bone/Blood [1, 5]: 80 | Bone/Muscle [1, 5]: 410

CN(CCN(CP(=O)(O)O)CP(=O)(O)O)CP(=O)(O)O.[166Ho+3] [Example 29]
% Dose in Blood [1, 6]: 0.12 % Dose | % Dose in Kidney [1, 6]: 0.30 % Dose | % Dose in Liver [1, 6]: 0.14 % Dose | % Dose in Muscle [1, 6]: 0.34 % Dose | % Dose in Skeleton [1, 6]: 68 % Dose | % Dose in Spleen [1, 6]: 0.01 % Dose | Bone/Blood [1, 6]: 470 | Bone/Muscle [1, 6]: 1133

O=P(O)(O)CN(CCN(CP(=O)(O)O)CP(=O)(O)O)CP(=O)(O)O.[159Gd+3] [Example 19]
% Dose in Blood [1, 7]: 0.15 % Dose | % Dose in Kidneys [1, 7]: 0.33 % Dose | % Dose in Liver [1, 7]: 0.25 % Dose | % Dose in Muscle [1, 7]: 0.56 % Dose | % Dose in Skeleton [1, 7]: 57 % Dose | Bone/Blood [1, 7]: 305 | Bone/Muscle [1, 7]: 577

O=P(O)(O)OP(=O)(O)O.[153Sm+3] [Sm-153 PYP, reference compound]
% Dose In Blood [1, 8]: 0.23 % Dose | % Dose In Bone [1, 8]: 2 % Dose | % Dose In Liver [1, 8]: 73 % Dose | Bone/Blood ([1]; Sm-153, two hours, comparative): 7 | Bone/Muscle ([1]; Sm-153, two hours, comparative): 15

O=P(O)(O)CN(CCN(CP(=O)(O)O)CP(=O)(O)O)CP(=O)(O)O.[175Yb+3] [Example 9]
% Dose in Blood [1, 4]: 0.074 % Dose | % Dose in Liver [1, 4]: 0.138 % Dose | % Dose in Skeleton [1, 4]: 50 % Dose | Bone/Blood [1, 4]: 562 | Bone/Muscle [1, 4]: 619

CC(O)(P(=O)(O)O)P(=O)(O)O.[153Sm+3] [Sm-153 HEDP, reference compound]
% Dose In Blood [1, 8]: 13 % Dose | % Dose In Bone [1, 8]: 21 % Dose | % Dose In Liver [1, 8]: 3.5 % Dose | Bone/Blood ([1]; Sm-153, two hours, comparative): 1 | Bone/Muscle ([1]; Sm-153, two hours, comparative): 11

O=P(O)(O)CN(CCN(CP(=O)(O)O)CP(=O)(O)O)CCN(CP(=O)(O)O)CP(=O)(O)O.[153Sm+3] [Example 4]
% Dose in Blood [1, 5]: 0.16 % Dose | % Dose in Liver [1, 5]: 0.27 % Dose | % Dose in Skeleton [1, 5]: 30 % Dose | % Dose in Urine [1, 5]: 74 % Dose | Bone/Blood [1, 5]: 224 | Bone/Muscle [1, 5]: 220

O=P(O)(O)CN(CCN(CP(=O)(O)O)CP(=O)(O)O)CCN(CP(=O)(O)O)CP(=O)(O)O.[175Yb+3] [Example 10]
% Dose in Blood [1, 4]: 0.116 % Dose | % Dose in Liver [1, 4]: 0.112 % Dose | % Dose in Skeleton [1, 4]: 25 % Dose | Bone/Blood [1, 4]: 179 | Bone/Muscle [1, 4]: 366

CC(O)(P(=O)(O)O)P(=O)(O)O.[166Ho+3] [Ho-166 HEDP, reference compound]
% Dose In Blood [1, 9]: 10.1 % Dose | % Dose In Bone [1, 9]: 25 % Dose | % Dose In Liver [1, 9]: 1.8 % Dose | Bone/Blood ([1]; Ho-166, two hours, comparative): 2 | Bone/Muscle ([1]; Ho-166, two hours, comparative): 17

O=P(O)(O)NP(=O)(O)O.[153Sm+3] [Sm-153 IDP, reference compound]
% Dose In Blood [1, 8]: 0.04 % Dose | % Dose In Bone [1, 8]: 0.6 % Dose | % Dose In Liver [1, 8]: 36 % Dose | Bone/Blood ([1]; Sm-153, two hours, comparative): 11 | Bone/Muscle ([1]; Sm-153, two hours, comparative): 8

O=P(O)(O)CN(CCO)CCN(CP(=O)(O)O)CP(=O)(O)O.[177Lu+3] [Example 15]
% Dose in Blood [1, 10]: 0.17 % Dose | % Dose in Kidneys [1, 10]: 0.30 % Dose | % Dose in Liver [1, 10]: 1.9 % Dose | % Dose in Muscle [1, 10]: 0.56 % Dose | % Dose in Skeleton [1, 10]: 58 % Dose | Bone/Blood [1, 10]: 370 | Bone/Muscle [1, 10]: 570

O=P(O)(O)CN(CCN(CP(=O)(O)O)CP(=O)(O)O)CP(=O)(O)O.[177Lu+3] [Example 14]
% Dose in Blood [1, 10]: 0.10 % Dose | % Dose in Kidneys [1, 10]: 0.28 % Dose | % Dose in Liver [1, 10]: 0.48 % Dose | % Dose in Muscle [1, 10]: 0.44 % Dose | % Dose in Skeleton [1, 10]: 51 % Dose | Bone/Blood [1, 10]: 500 | Bone/Muscle [1, 10]: 1380

O=P(O)(O)CN(CCN(CP(=O)(O)O)CP(=O)(O)O)Cc1ccccc1.[166Ho+3] [Example 33]
% Dose in Blood [1, 6]: 0.09 % Dose | % Dose in Kidney [1, 6]: 0.34 % Dose | % Dose in Liver [1, 6]: 0.13 % Dose | % Dose in Muscle [1, 6]: 0.31 % Dose | % Dose in Skeleton [1, 6]: 65 % Dose | % Dose in Spleen [1, 6]: 0.01 % Dose | Bone/Blood [1, 6]: 542 | Bone/Muscle [1, 6]: 1093

O=P(O)(O)CN(CCN(CP(=O)(O)O)CP(=O)(O)O)CP(=O)(O)O.[166Ho+3] [Example 16]
additional survival [2]: 9 months | survival compared with usual expected life [2]: greater than the usual expected life of a dog with osteosarcoma | % Dose in Blood [1, 10]: 0.03 % Dose | % Dose in Kidneys [1, 10]: 0.26 % Dose | % Dose in Liver [1, 10]: 0.05 % Dose | % Dose in Muscle [1, 10]: 0.10 % Dose | % Dose in Skeleton [1, 10]: 48 % Dose | Bone/Blood [1, 10]: 1114 | Bone/Muscle [1, 10]: 2292

O=P(O)(O)CN(CCO)CCN(CP(=O)(O)O)CP(=O)(O)O.[153Sm+3] [Example 6]
% Dose in Blood [1, 5]: 0.035 % Dose | % Dose in Liver [1, 5]: 0.45 % Dose | % Dose in Skeleton [1, 5]: 57 % Dose | % Dose in Urine [1, 5]: 50 % Dose | Bone/Blood [1, 5]: 1300 | Bone/Muscle [1, 5]: 1300

CC(C)N(CCN(CP(=O)(O)O)CP(=O)(O)O)CP(=O)(O)O.[166Ho+3] [Example 31]
% Dose in Blood [1, 6]: 0.22 % Dose | % Dose in Kidney [1, 6]: 0.44 % Dose | % Dose in Liver [1, 6]: 0.28 % Dose | % Dose in Muscle [1, 6]: 0.68 % Dose | % Dose in Skeleton [1, 6]: 65 % Dose | % Dose in Spleen [1, 6]: 0.01 % Dose | Bone/Blood [1, 6]: 245 | Bone/Muscle [1, 6]: 520

O=P(O)(O)CP(=O)(O)O.[166Ho+3] [Ho-166 MDP, reference compound]
% Dose In Blood [1, 9]: 1.5 % Dose | % Dose In Bone [1, 9]: 1 % Dose | % Dose In Liver [1, 9]: 64 % Dose | Bone/Blood ([1]; Ho-166, two hours, comparative): 0.5 | Bone/Muscle ([1]; Ho-166, two hours, comparative): 6

O=P(O)(O)CN(CCO)CCN(CP(=O)(O)O)CP(=O)(O)O.[159Gd+3] [Example 20]
% Dose in Blood [1, 7]: 0.14 % Dose | % Dose in Kidneys [1, 7]: 0.58 % Dose | % Dose in Liver [1, 7]: 0.57 % Dose | % Dose in Muscle [1, 7]: 0.76 % Dose | % Dose in Skeleton [1, 7]: 60 % Dose | Bone/Blood [1, 7]: 335 | Bone/Muscle [1, 7]: 548

O=P(O)(O)CP(=O)(O)O.[153Sm+3] [Sm-153 MDP, reference compound]
% Dose In Blood [1, 8]: 0.23 % Dose | % Dose In Bone [1, 8]: 2 % Dose | % Dose In Liver [1, 8]: 85 % Dose | Bone/Blood ([1]; Sm-153, two hours, comparative): 9 | Bone/Muscle ([1]; Sm-153, two hours, comparative): 7

O=P(O)(O)C(O)P(=O)(O)O.[166Ho+3] [H0-166 HDP, reference compound]
% Dose In Blood [1, 9]: 0.04 % Dose | % Dose In Bone [1, 9]: 0.2 % Dose | % Dose In Liver [1, 9]: 2 % Dose | Bone/Blood ([1]; Ho-166, two hours, comparative): 4 | Bone/Muscle ([1]; Ho-166, two hours, comparative): 4

O=P(O)(O)CN(CP(=O)(O)O)CP(=O)(O)O.[175Yb+3] [Example 13]
% Dose in Blood [1, 4]: 0.204 % Dose | % Dose in Liver [1, 4]: 0.236 % Dose | % Dose in Skeleton [1, 4]: 63 % Dose | Bone/Blood [1, 4]: 256 | Bone/Muscle [1, 4]: 876

O=P(O)(O)NP(=O)(O)O.[166Ho+3] [Ho-166 IDP, reference compound]
% Dose In Blood [1, 9]: 0.28 % Dose | % Dose In Bone [1, 9]: 2 % Dose | % Dose In Liver [1, 9]: 65 % Dose | Bone/Blood ([1]; Ho-166, two hours, comparative): 6 | Bone/Muscle ([1]; Ho-166, two hours, comparative): 17

O=P(O)(O)OP(=O)(O)O.[166Ho+3] [Ho-166 PYP, reference compound]
% Dose In Blood [1, 9]: 0.63 % Dose | % Dose In Bone [1, 9]: 3 % Dose | % Dose In Liver [1, 9]: 67 % Dose | Bone/Blood ([1]; Ho-166, two hours, comparative): 4 | Bone/Muscle ([1]; Ho-166, two hours, comparative): 13

O=P(O)(O)CN(CCO)CP(=O)(O)O.[153Sm+3]
localization of radioactivity in the liver [3]: a significant portion of the radioactivity localized in the liver

Reference: US5300279A, “Organic amine phosphonic acid complexes for the treatment of calcific tumors” (The Dow Chemical Company, priority 1990, dated 1994)
